61 compounds from patent US6723753B2, “Substituted n-benzyl-n-phenyl aminoalcohol compounds useful for inhibiting cholesteryl ester transfer protein activity” (Pharmacia Corporation, priority 2002, dated 2004) can be followed below.

The assay concerns the target T1, CETP (Homo sapiens, UniProt P11597).
T1 sequence (P11597 18-493): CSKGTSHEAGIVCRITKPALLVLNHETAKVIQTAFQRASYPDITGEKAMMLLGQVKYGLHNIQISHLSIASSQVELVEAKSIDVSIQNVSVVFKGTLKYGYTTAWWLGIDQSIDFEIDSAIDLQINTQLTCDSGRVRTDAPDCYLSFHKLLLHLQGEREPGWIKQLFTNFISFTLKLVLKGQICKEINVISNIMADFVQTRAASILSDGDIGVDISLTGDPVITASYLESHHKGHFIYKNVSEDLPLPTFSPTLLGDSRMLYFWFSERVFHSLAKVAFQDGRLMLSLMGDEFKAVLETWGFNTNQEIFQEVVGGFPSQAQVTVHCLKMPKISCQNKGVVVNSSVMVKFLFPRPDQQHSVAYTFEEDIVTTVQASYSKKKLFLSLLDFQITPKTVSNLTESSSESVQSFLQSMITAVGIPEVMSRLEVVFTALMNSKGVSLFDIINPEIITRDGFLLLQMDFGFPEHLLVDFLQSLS
Description: Assay of CETP Inhibition using Purified Components (Reconstituted Buffer Assay). The assay is classed as biochemical. Also noted: made in house; host or cells: CHO cells (serum-free conditioned medium). The conditions noted are these: Inhibition of CETP activity in reconstituted buffer assay; transfer of [3H]CE from HDL to LDL; read-out: IC50. In short, it runs like this: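 Transfer of radiolabeled cholesteryl ester from HDL to LDL was run for 2 h at 37 °C in pH 7.4 Tris buffer with 1% BSA, using purified CHO-expressed human CETP. Precipitated LDL radioactivity, measured by scintillation after dextran sulfate/MgCl2 precipitation and filtration, yielded the IC50.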
Regarding `COc1ccc(N(CCCC(F)(F)F)c2cccc(N(Cc3cccc(OC(F)(F)C(F)F)c3)CC(O)C(F)(F)F)c2)cc1` (stereo not shown) [Example 320], the IC50 (commonly the concentration that inhibits the measured activity by half) was found to be 32 µM. On to `OC(CN(Cc1ccc(Cl)s1)c1cccc(OC(F)(F)F)c1)C(F)(F)F` (stereo not shown) [Example 321], for which the IC50 amounted to 5 µM. Under `OC(CN(Cc1ccc(OC(F)F)cc1)c1cccc(OC(F)(F)F)c1)C(F)(F)F` (stereo not shown) [Example 323] stands 9 µM; under `N#Cc1ccccc1-c1ccc(CN(CC(O)C(F)(F)F)c2cccc(OC(F)(F)F)c2)cc1` (stereo not shown) [Example 324], 20 µM; under `COc1c(F)c(F)c(CN(CC(O)C(F)(F)F)c2cccc(OC(F)(F)F)c2)c(F)c1F` (stereo not shown) [Example 326], more than 100 µM. The value for `N#Cc1cccc(CN(CC(O)C(F)(F)F)c2cccc(OC(F)(F)F)c2)c1` (stereo not shown) [Example 327] was more than 100 µM; that for `OC(CN(Cc1cc(F)cc(F)c1)c1cccc(OC(F)(F)F)c1)C(F)(F)F` (stereo not shown) [Example 328] was more than 100 µM; that for `OC(CN(Cc1ccc(F)cc1F)c1cccc(OC(F)(F)F)c1)C(F)(F)F` (stereo not shown) [Example 329] was more than 100 µM.

With `OC(CN(Cc1c(F)cccc1F)c1cccc(OC(F)(F)F)c1)C(F)(F)F` (stereo not shown) [Example 330], the IC50 was more than 100 µM. With `O=[N+]([O-])c1ccc(CN(CC(O)C(F)(F)F)c2cccc(OC(F)(F)F)c2)cc1` (stereo not shown) [Example 331], the half-maximal inhibitory concentration (IC50) was more than 100 µM. Under `OC(CN(Cc1cccc2ccccc12)c1cccc(OC(F)(F)F)c1)C(F)(F)F` (stereo not shown) [Example 332] stands 80 µM. Under `O=[N+]([O-])c1cccc(CN(CC(O)C(F)(F)F)c2cccc(OC(F)(F)F)c2)c1` (stereo not shown) [Example 335] stands 40 µM; under `OC(CN(CCCCOc1ccccc1)c1cccc(OC(F)(F)F)c1)C(F)(F)F` (stereo not shown) [Example 336], more than 100 µM. Turning to `OC(CN(CCCc1ccccc1)c1cccc(OC(F)(F)F)c1)C(F)(F)F` (stereo not shown) [Example 337], the half-maximal inhibitory concentration (IC50) was more than 100 µM. As to `COc1ccc(CCCN(CC(O)C(F)(F)F)c2cccc(OC(F)(F)F)c2)cc1` (stereo not shown) [Example 338], the IC50 was more than 100 µM. Turning to `COC(=O)c1ccc(CN(CC(O)C(F)(F)F)c2cccc(OC(F)(F)F)c2)cc1` (stereo not shown) [Example 341], the IC50 was more than 100 µM.

With `O=C1c2ccccc2C(=O)c2cc(CN(CC(O)C(F)(F)F)c3cccc(OC(F)(F)F)c3)ccc21` (stereo not shown) [Example 342], the concentration for half-maximal inhibition (IC50) came to 70 µM.

For the compound `OC(CN(CCc1c[nH]c2ccccc12)c1cccc(OC(F)(F)F)c1)C(F)(F)F` (stereo not shown) [Example 344], the concentration for half-maximal inhibition (IC50) is more than 100 µM. Take `OC(CN(Cc1cccnc1)c1cccc(OC(F)(F)F)c1)C(F)(F)F` (stereo not shown) [Example 345]: the IC50 was 45 µM.

In the case of `COc1ccc(CN(CC(O)C(F)(F)F)c2cccc(OC(F)(F)F)c2)cc1` (stereo not shown) [Example 347], the half-maximal inhibitory concentration (IC50) amounted to 15 µM.

As for `COc1cccc(CN(CC(O)C(F)(F)F)c2cccc(OC(F)(F)F)c2)c1` (stereo not shown) [Example 348], the half-maximal inhibitory concentration (IC50) is 35 µM. For `OC(CN(Cc1ccncc1)c1cccc(OC(F)(F)F)c1)C(F)(F)F` (stereo not shown) [Example 349], the IC50 was more than 100 µM. The value for `OC(CN(CC=Cc1ccccc1)c1cccc(OC(F)(F)F)c1)C(F)(F)F` (stereo not shown) [Example 352] was 35 µM; that for `COc1cc(OC)cc(C(=O)N(CC(O)C(F)(F)F)c2cccc(OC(F)(F)F)c2)c1` (stereo not shown) [Example 353] was 70 µM; that for `COc1cc(OC)c(OC)cc1CN(CC(O)C(F)(F)F)c1cccc(OC(F)(F)F)c1` (stereo not shown) [Example 354] was more than 100 µM. The value for `COc1ccc(OC)c(CN(CC(O)C(F)(F)F)c2cccc(OC(F)(F)F)c2)c1` (stereo not shown) [Example 355] was 75 µM; that for `O=C(O)c1cccc(CN(CC(O)C(F)(F)F)c2cccc(OC(F)(F)F)c2)c1` (stereo not shown) [Example 356] was more than 100 µM. For the compound `Oc1cccc(CN(CC(O)C(F)(F)F)c2cccc(OC(F)(F)F)c2)c1` (stereo not shown) [Example 357], the 50% inhibitory concentration (IC50) amounted to 40 µM. The value for `Oc1ccc(O)c(CN(CC(O)C(F)(F)F)c2cccc(OC(F)(F)F)c2)c1` (stereo not shown) [Example 358] was more than 100 µM; that for `Oc1cc(CN(CC(O)C(F)(F)F)c2cccc(OC(F)(F)F)c2)cc(O)c1O` (stereo not shown) [Example 359] was more than 100 µM. With `Oc1cc(O)cc(CN(CC(O)C(F)(F)F)c2cccc(OC(F)(F)F)c2)c1` (stereo not shown) [Example 360], the concentration for half-maximal inhibition (IC50) was more than 100 µM.

As to `OC(CN(Cc1ccc2ccccc2n1)c1cccc(OC(F)(F)F)c1)C(F)(F)F` (stereo not shown) [Example 362], the concentration for half-maximal inhibition (IC50) was 45 µM. For `OC(CN(Cc1ccccn1)c1cccc(OC(F)(F)F)c1)C(F)(F)F` (stereo not shown) [Example 363], the IC50 came to 40 µM. Under `OC(CN(Cc1nc2ccccc2[nH]1)c1cccc(OC(F)(F)F)c1)C(F)(F)F` (stereo not shown) [Example 364] stands more than 100 µM; under `OC(CN(Cc1nccn1Cc1ccccc1)c1cccc(OC(F)(F)F)c1)C(F)(F)F` (stereo not shown) [Example 365], more than 100 µM; under `OC(CN(Cc1cc(Cl)nc(Cl)c1)c1cccc(OC(F)(F)F)c1)C(F)(F)F` (stereo not shown) [Example 366], 80 µM. Consider `CCCCOc1ccc(NC(=O)N(CC(O)C(F)(F)F)c2cccc(OC(F)(F)F)c2)cc1` (stereo not shown) [Example 367, N′-(4-butoxyphenyl)-N-(3,3,3-trifluoro-2-hydroxypropyl)-N-[3-(trifluoromethoxy)phenyl]urea], for which the IC50 was more than 100 µM. The value for `CSc1ccccc1NC(=O)N(CC(O)C(F)(F)F)c1cccc(OC(F)(F)F)c1` (stereo not shown) [Example 368] was more than 100 µM; that for `O=C(Nc1ccc(-c2ccccc2)cc1)N(CC(O)C(F)(F)F)c1cccc(OC(F)(F)F)c1` (stereo not shown) [Example 369] was more than 100 µM.

Turning to `Cc1ccc(S(=O)(=O)NC(=O)N(CC(O)C(F)(F)F)c2cccc(OC(F)(F)F)c2)cc1` (stereo not shown) [Example 370], the IC50 was more than 100 µM. For the compound `Oc1cccc(N(Cc2cccc(OC(F)(F)C(F)F)c2)CC(O)C(F)(F)F)c1` (stereo not shown) [Example 371, 3-[[[3-(1,1,2,2-tetrafluoroethoxy)phenyl]methyl](3,3,3-trifluoro-2-hydroxypropyl)amino]phenol], the IC50 stood at 3.9 µM. With `O=[N+]([O-])c1ccc(COc2cccc(N(Cc3cccc(OC(F)(F)C(F)F)c3)CC(O)C(F)(F)F)c2)cc1` (stereo not shown) [Example 375], the concentration for half-maximal inhibition (IC50) is 4.5 µM. As to `OC(CN(Cc1cccc(OC(F)(F)C(F)F)c1)c1cccc(OCc2c(F)c(F)c(F)c(F)c2F)c1)C(F)(F)F` (stereo not shown) [Example 376], the IC50 was 3.3 µM. With `OC(CN(Cc1cccc(OC(F)(F)C(F)F)c1)c1cccc(OCc2c(F)c(F)c(C(F)(F)F)c(F)c2F)c1)C(F)(F)F` (stereo not shown) [Example 380], the IC50 was found to be 11 µM. On to `OC(CN(Cc1cccc(OC(F)(F)C(F)F)c1)c1cccc(OCc2ccc(F)cc2C(F)(F)F)c1)C(F)(F)F` (stereo not shown) [Example 381], for which the IC50 came out at 1.2 µM.

As to `O=[N+]([O-])c1cccc(COc2cccc(N(Cc3cccc(OC(F)(F)C(F)F)c3)CC(O)C(F)(F)F)c2)c1` (stereo not shown) [Example 382], the IC50 was determined as 2.3 µM.

Regarding `N#Cc1cccc(COc2cccc(N(Cc3cccc(OC(F)(F)C(F)F)c3)CC(O)C(F)(F)F)c2)c1` (stereo not shown) [Example 383], the concentration for half-maximal inhibition (IC50) was determined as 2.3 µM. The value for `N#Cc1ccc(COc2cccc(N(Cc3cccc(OC(F)(F)C(F)F)c3)CC(O)C(F)(F)F)c2)cc1` (stereo not shown) [Example 384] was 1.6 µM. Consider `COc1c(F)c(F)c(COc2cccc(N(Cc3cccc(OC(F)(F)C(F)F)c3)CC(O)C(F)(F)F)c2)c(F)c1F` (stereo not shown) [Example 386], for which the IC50 came out at 3.2 µM.

For `COC(=O)c1cccc(COc2cccc(N(Cc3cccc(OC(F)(F)C(F)F)c3)CC(O)C(F)(F)F)c2)c1` (stereo not shown) [Example 387], the concentration for half-maximal inhibition (IC50) was determined as 2.2 µM. Consider `COC(=O)c1ccc(COc2cccc(N(Cc3cccc(OC(F)(F)C(F)F)c3)CC(O)C(F)(F)F)c2)cc1` (stereo not shown) [Example 388], for which the 50% inhibitory concentration (IC50) is 3 µM. In the case of `OC(CN(Cc1cccc(OC(F)(F)C(F)F)c1)c1cccc(OCc2c(F)cc(F)cc2F)c1)C(F)(F)F` (stereo not shown) [Example 392], the IC50 came out at 1.4 µM. Under `OC(CN(Cc1cccc(OC(F)(F)C(F)F)c1)c1cccc(OCc2c(F)cccc2F)c1)C(F)(F)F` (stereo not shown) [Example 394] stands 3.1 µM.

Turning to `OC(CN(Cc1cccc(OC(F)(F)C(F)F)c1)c1cccc(OCc2ccc(F)c(F)c2)c1)C(F)(F)F` (stereo not shown) [Example 398], the IC50 was found to be 1.1 µM. With `OC(CN(Cc1cccc(OC(F)(F)C(F)F)c1)c1cccc(OCc2ccccc2Br)c1)C(F)(F)F` (stereo not shown) [Example 403], the IC50 is 1.5 µM.

As for `OC(CN(Cc1cccc(OC(F)(F)C(F)F)c1)c1cccc(OCc2ccccc2Cl)c1)C(F)(F)F` (stereo not shown) [Example 404], the IC50 turned out to be 2.1 µM.

As for `OC(CN(Cc1cccc(OC(F)(F)C(F)F)c1)c1cccc(OCc2cccc(F)c2)c1)C(F)(F)F` (stereo not shown) [Example 406], the IC50 came out at 1.4 µM. For `COc1cccc(COc2cccc(N(Cc3cccc(OC(F)(F)C(F)F)c3)CC(O)C(F)(F)F)c2)c1` (stereo not shown) [Example 407], the half-maximal inhibitory concentration (IC50) was 1.5 µM. Take `OC(CN(Cc1cccc(OC(F)(F)C(F)F)c1)c1cccc(OCc2cc(F)cc(F)c2F)c1)C(F)(F)F` (stereo not shown) [Example 408]: the half-maximal inhibitory concentration (IC50) worked out at 0.75 µM. Under `OC(CN(Cc1cccc(OC(F)(F)C(F)F)c1)c1cccc(OCc2ccc(SC(F)(F)F)cc2)c1)C(F)(F)F` (stereo not shown) [Example 409] stands 0.61 µM; under `OC(CN(Cc1cccc(OC(F)(F)C(F)F)c1)c1cccc(OCc2ccc(F)c(C(F)(F)F)c2)c1)C(F)(F)F` (stereo not shown) [Example 412], 0.71 µM.
